According to patent publication US7030137B2, “Substituted thiophenes with antibacterial activity” (Replidyne, Inc., priority 2003, dated 2006):
≈ marks a conversion by molar mass, not a printed value. Counter-ions that a name gives are not always drawn.

Key:
S. aureus = assay: MIC S. aureus (standard MIC assay modified by inclusion of cyclodextrin); type: cell-based; conditions: Staphylococcus aureus
Protocol: (§1) Compounds of the present invention were assayed for antibacterial activity against a range of pathogenic organisms (strains of S aureus, S pneumoniae, E faecalis, H influenzae and M catarrhalis) in a standard MIC assay modified by the inclusion of cyclodextrin, to assist with solubility.

S. pneumo = assay: MIC S. pneumo (standard MIC assay modified by inclusion of cyclodextrin); type: cell-based; conditions: Streptococcus pneumoniae
Protocol: as §1

H. influenzae = assay: MIC H. influenzae (standard MIC assay modified by inclusion of cyclodextrin); type: cell-based; conditions: Haemophilus influenzae
Protocol: as §1

[1] = test system: S. aureus, S. pneumoniae, and E. faecalis; assay: MIC against some strains of gram positive pathogens; type: cell-based
Protocol: as §1

[2] = test system: M catarrhalis and H. influenzae; assay: MIC against some strains of gram negative pathogens; type: cell-based; conditions: Haemophilus influenzae
Protocol: as §1

[3] = biological target: T1, recombinant H. influenzae MRS (Haemophilus influenzae, UniProt P43828); assay: Enzyme Inhibition (H. influenzae MRS) aminoacylation assay; type: biochemical; conditions: read-out: IC50 against H. influenzae MRS
T1 construct: made in house
Protocol: 2. Enzyme Inhibition (H. influenzae MRS)—aminoacylation assay
Compounds of the present invention may be assayed for their ability to inhibit the enzyme methionyl tRNA synthetase (MRS), using recombinant H. influenzae MRS(R. D. Fleischmann et al., Science, 269, 496–512, 1995), as follows:
The reaction is started by adding 20 μl appropriately diluted pure enzyme (pre-incubated with inhibitor) to 25 μl reaction mix for 10 min at room temperature. The reaction is terminated by the addition of 150 μl 167 mM sodium citrate, pH 2.15 containing phosphodiesterase (PDE) SPA beads (0.833 mg/ml). The binding of the radiolabelled product to the bead brings the isotope into close enough proximity to allow radiation from the tritium to excite the scintillant within the bead. Any unbound radiolabel is not close enough to the scintillant to allow this energy transfer, so no signal is generated. Following termination of the reaction, plates are spun at 2500 rpm for 5 min in a Mistral 3000E plate centrifuge (or alternatively allowed to stand for 1 hour). The assay is conducted in 96-well Optiplates (Packard). Plates are counted on a TopCount. (Packard 96 well counter).
Mixed E. coli MRE 600 tRNA and ATP were purchased from Boehringer-Mannheim, L-[methyl-^3H]methionine and phosphodiesterase scintillation proximity (SPA) beads from Amersham Pharmacia Biotech and other reagents from Sigma.

[4] = prior art thiophenes of U.S. Pat. No. 6,320,051

T1 sequence (P43828 whole entry): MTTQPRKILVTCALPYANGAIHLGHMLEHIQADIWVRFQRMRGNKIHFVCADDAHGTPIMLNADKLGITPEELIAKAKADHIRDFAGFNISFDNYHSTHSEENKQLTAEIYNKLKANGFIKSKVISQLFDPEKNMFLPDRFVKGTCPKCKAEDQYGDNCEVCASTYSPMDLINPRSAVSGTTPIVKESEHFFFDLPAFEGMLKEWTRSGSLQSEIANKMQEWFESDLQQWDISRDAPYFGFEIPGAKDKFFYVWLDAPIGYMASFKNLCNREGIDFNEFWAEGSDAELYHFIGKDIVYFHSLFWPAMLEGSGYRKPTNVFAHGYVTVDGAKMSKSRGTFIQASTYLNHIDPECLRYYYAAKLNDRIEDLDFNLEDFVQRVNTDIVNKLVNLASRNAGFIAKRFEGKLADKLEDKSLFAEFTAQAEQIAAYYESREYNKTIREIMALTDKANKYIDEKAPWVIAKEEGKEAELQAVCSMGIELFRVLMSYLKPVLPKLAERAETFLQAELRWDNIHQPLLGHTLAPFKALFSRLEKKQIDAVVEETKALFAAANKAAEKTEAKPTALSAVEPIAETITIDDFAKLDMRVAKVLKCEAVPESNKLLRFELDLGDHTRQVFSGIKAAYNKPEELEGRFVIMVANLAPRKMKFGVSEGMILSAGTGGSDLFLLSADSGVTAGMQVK

SMILES	MIC (S. aureus)	MIC (S. pneumo)	MIC (H. influenzae)	MIC [1]	IC50 [3]	MIC (S. aureus; [4])	MIC (S. pneumo; [4])	MIC (H. influenzae; [4])	MIC [2]
Cc1c(CNCCCNc2cc(=O)c3ccccc3[nH]2)sc(C2CC2)c1Br [Example 6, N-(4-bromo-5-cyclopropyl-3-methylthiophen-2-ylmethyl)-N′-(1H-quinolin-4-one)propane-1,3-diamine]	0.06 µg/mL (≈ 0.134 µM)	0.13 µg/mL (≈ 0.291 µM)	32 µg/mL (≈ 71.7 µM)	0.06 to 0.5 µg/mL (≈ 0.134 to 1.12 µM)					
CC#Cc1c(CNCCCNc2cc(=O)c3ccccc3[nH]2)sc(CC)c1Br [Example 9, N-(4-bromo-3-(1-propynyl)-5-ethylthiophen-2-ylmethyl)-N′-(1H-quinolin-4-one)propane-1,3-diamine]	0.06 µg/mL (≈ 0.131 µM)	0.06 µg/mL (≈ 0.131 µM)	64 µg/mL (≈ 140 µM)	0.06 to 0.5 µg/mL (≈ 0.131 to 1.09 µM)					
C=Cc1sc(CNCCCNc2cc(=O)c3ccccc3[nH]2)c(C)c1Br [Example 3, N-(4-bromo-3-methyl-5-vinylthiophen-2-ylmethyl)-N′-(1H-quinolin-4-one)propane-1,3-diamine]	0.06 µg/mL (≈ 0.139 µM)	0.06 µg/mL (≈ 0.139 µM)	16 µg/mL (≈ 37 µM)	0.06 to 0.5 µg/mL (≈ 0.139 to 1.16 µM)					
Cc1c(CNCCCNc2cc(=O)c3ccccc3[nH]2)sc(C(F)F)c1Br [Example 7, N-(4-bromo-5-difluoromethyl-3-methylthiophen-2-ylmethyl)-N′-(1H-quinolin-4-one)propane-1,3-diamine]	1 µg/mL (≈ 2.19 µM)	1 µg/mL (≈ 2.19 µM)	64 µg/mL (≈ 140 µM)	1 to 2 µg/mL (≈ 2.19 to 4.38 µM)					
C#Cc1sc(CNCCCNc2cc(=O)c3ccccc3[nH]2)c(C)c1Br [Example 2, N-(4-bromo-5-ethynyl-3-methylthiophen-2-ylmethyl)-N′-(1H-quinolin-4-one)propane-1,3-diamine]	0.13 µg/mL (≈ 0.302 µM)	0.06 µg/mL (≈ 0.139 µM)	> 64 µg/mL	0.06 to 0.5 µg/mL (≈ 0.139 to 1.16 µM)					
Cc1c(CNCCCNc2nc3nnccc3[nH]2)sc(C2CC2)c1Br [Example 11, N-(4-Bromo-5-cyclopropyl-3-methylthiophen-2-ylmethyl)-N′-(5H-imidazo[4,5-c]pyridazin-6-yl)propane-1,3-diamine dihydrochloride]	2 µg/mL	8 µg/mL	2 µg/mL	1 to 2 µg/mL					0.13 to 8 µg/mL
C=Cc1sc(CNCCCNc2nc3nnccc3[nH]2)c(C)c1Br [Example 13, N-(4-bromo-3-methyl-5-vinylthiophen-2-ylmethyl)-N′-(5H-imidazo[4,5-c]pyridazin-6-yl)propane-1,3-diamine dihydrochloride]	0.5 µg/mL	2 µg/mL	2 µg/mL	0.06 to 0.5 µg/mL					0.13 to 8 µg/mL
Cc1c(CNCCCNc2cc(=O)c3ccccc3[nH]2)sc(C(F)(F)F)c1Br [Example 8, N-(4-bromo-3-methyl-5-trifluoromethylthiophen-2-ylmethyl)-N′-(1H-quinolin-4-one)propane-1,3-diamine]	0.13 µg/mL (≈ 0.274 µM)	0.13 µg/mL (≈ 0.274 µM)	64 µg/mL (≈ 135 µM)	0.06 to 0.5 µg/mL (≈ 0.126 to 1.05 µM)					
C#Cc1sc(CNCCCNc2nc3nnccc3[nH]2)c(C)c1Br [Example 15, N-(4-bromo-5-ethynyl-3-methylthiophen-2-ylmethyl)-N′-(5H-imidazo[4,5-c]pyridazin-6-yl)propane-1,3-diamine dihydrochloride]	1 µg/mL	0.5 µg/mL	0.5 µg/mL	1 to 2 µg/mL					0.13 to 8 µg/mL
CCc1sc(CNCCCNc2cc(=O)c3ccccc3[nH]2)c(C)c1Br [Example 5, N-(4-bromo-5-ethyl-3-methylthiophen-2-ylmethyl)-N′-(1H-quinolin-4-one)propane-1,3-diamine]	0.06 µg/mL (≈ 0.138 µM)	0.25 µg/mL (≈ 0.576 µM)	64 µg/mL (≈ 147 µM)	0.06 to 0.5 µg/mL (≈ 0.138 to 1.15 µM)					
Cc1c(CNCCCNc2nc3nnccc3[nH]2)sc(C(F)(F)F)c1Br [Example 12, N-(4-bromo-3-methyl-5-trifluoromethylthiophen-2-ylmethyl)-N′-(5H-imidazo[4,5-c]pyridazin-6-yl)propane-1,3-diamine dihydrochloride]	0.5 µg/mL	2 µg/mL	0.25 µg/mL	0.06 to 0.5 µg/mL					0.13 to 8 µg/mL
C=C(F)c1sc(CNCCCNc2nc3nnccc3[nH]2)c(C)c1Br [Example 14, N-(4-bromo-5-(1-fluorovinyl)-3-methylthiophen-2-ylmethyl)-N′-(5H-imidazo[4,5-c]pyridazin-6-yl)propane-1,3-diamine dihydrochloride]	0.25 µg/mL	0.25 µg/mL	0.13 µg/mL	0.06 to 0.5 µg/mL					0.13 to 8 µg/mL
C=C(F)c1sc(CNCCCNc2cc(=O)c3ccccc3[nH]2)c(C)c1Br [Example 4, N-(4-bromo-5-(1-fluorovinyl)-3-methylthiophen-2-ylmethyl)-N′-(1H-quinolin-4-one)propane-1,3-diamine]	0.06 µg/mL (≈ 0.133 µM)	0.06 µg/mL (≈ 0.133 µM)	4 µg/mL (≈ 8.88 µM)	0.06 to 0.5 µg/mL (≈ 0.133 to 1.11 µM)					0.13 to 8 µg/mL (≈ 0.289 to 17.8 µM)
Cc1c(CNCCCNc2cc(=O)c3ccccc3[nH]2)sc(Br)c1Br [Example 1, N-(4,5-Dibromo-3-methylthiophen-2-ylmethyl)-N′-(1H-quinolin-4-one)propane-1,3-diamine]	0.25 µg/mL (≈ 0.515 µM)	0.06 µg/mL (≈ 0.124 µM)	32 µg/mL (≈ 65.9 µM)	0.06 to 0.5 µg/mL (≈ 0.124 to 1.03 µM)					

Now from value to compound, other results behind:

MIC (S. aureus)	MIC (S. pneumo)	MIC (H. influenzae)	MIC [1]	IC50 [3]	MIC (S. aureus; [4])	MIC (S. pneumo; [4])	MIC (H. influenzae; [4])	SMILES	MIC [2]
1 µg/mL (≈ 2.33 µM)	4 µg/mL (≈ 9.32 µM)	8 µg/mL (≈ 18.6 µM)	1 to 2 µg/mL (≈ 2.33 to 4.66 µM)					Cc1c(CNCCCNc2nc3ccccc3[nH]2)sc(C(F)F)c1Br [Example 23, N-(4-bromo-5-difluoromethyl-3-methylthiophen-2-ylmethyl)-N′-(1H-benzimidazole)propane-1,3-diamine]	0.13 to 8 µg/mL (≈ 0.303 to 18.6 µM)
0.5 µg/mL (≈ 1.12 µM)	1 µg/mL (≈ 2.24 µM)	8 µg/mL (≈ 17.9 µM)	0.06 to 0.5 µg/mL (≈ 0.134 to 1.12 µM)					Cc1c(CNCCCNc2nc3ccccc3[nH]2)sc(C(F)(F)F)c1Br [Example 24, N-(4-bromo-3-methyl-5-trifluoromethylthiophen-2-ylmethyl)-N′-(1H-benzimidazole)propane-1,3-diamine]	0.13 to 8 µg/mL (≈ 0.291 to 17.9 µM)
0.5 µg/mL (≈ 1.02 µM)	2 µg/mL (≈ 4.06 µM)	32 µg/mL (≈ 65 µM)	0.06 to 0.5 µg/mL (≈ 0.122 to 1.02 µM)	≤ 200 nM				Cc1c(CNCCCNc2nc(=O)c3sccc3[nH]2)sc(Br)c1Br [Example 25, N-(4,5-Dibromo-3-methylthiophen-2-ylmethyl)-N′-(1H-thieno [3,2-d]pyrimidin-4-one)propane-1,3-diamine]	
					8 µg/mL (≈ 17 µM)	1 µg/mL (≈ 2.12 µM)	> 64 µg/mL	O=c1cc(NCCCNCc2cc(Br)c(Br)s2)[nH]c2ccccc12 [Example 37]	
					2 µg/mL (≈ 3.64 µM)	1 µg/mL (≈ 1.82 µM)	> 64 µg/mL	O=c1cc(NCCCNCc2sc(Br)c(Br)c2Br)[nH]c2ccccc12 [Example 65]	
0.5 µg/mL (≈ 1.16 µM)	4 µg/mL (≈ 9.3 µM)	64 µg/mL (≈ 149 µM)	0.06 to 0.5 µg/mL (≈ 0.139 to 1.16 µM)					Cc1c(CNCCCNc2nc3ncccc3[nH]2)sc(C(F)F)c1Br [Example 16, N-(4-bromo-5-difluoromethyl-3-methylthiophen-2-ylmethyl)-N′-(1H-imidazo[4,5-b]pyridin-2-yl)-propane-1,3-diamine]	
0.06 µg/mL (≈ 0.13 µM)	0.25 µg/mL (≈ 0.543 µM)	8 µg/mL (≈ 17.4 µM)	0.06 to 0.5 µg/mL (≈ 0.13 to 1.09 µM)					CC=Cc1c(CNCCCNc2cc(=O)c3ccccc3[nH]2)sc(CC)c1Br [Example 10, N-(4-bromo-3-(1-propenyl)-5-ethylthiophen-2-ylmethyl)-N′-(1H-quinolin-4-one)propane-1,3-diamine]	0.13 to 8 µg/mL (≈ 0.282 to 17.4 µM)
0.25 µg/mL (≈ 0.551 µM)	0.5 µg/mL (≈ 1.1 µM)	16 µg/mL (≈ 35.3 µM)	0.06 to 0.5 µg/mL (≈ 0.132 to 1.1 µM)					Cc1c(CNCCCNc2nc3cscc3[nH]2)sc(C(F)(F)F)c1Br [Example 20, N-(4-Bromo-3-methyl-5-trifluoromethylthiophen-2-ylmethyl)-N′-(1H-thieno[3,4-d]imidazol-2-yl)propane-1,3-diamine]	
0.13 µg/mL (≈ 0.307 µM)	0.5 µg/mL (≈ 1.18 µM)	16 µg/mL (≈ 37.8 µM)	0.06 to 0.5 µg/mL (≈ 0.142 to 1.18 µM)	≤ 200 nM				C=C(F)c1sc(CNCCCNc2nc3ccccc3[nH]2)c(C)c1Br [Example 22, N-(4-bromo-5-(1-fluorovinyl)-3-methylthiophen-2-ylmethyl)-N′-(1H-benzimidazole)propane-1,3-diamine]	
					2 µg/mL (≈ 3.91 µM)	2 µg/mL (≈ 3.91 µM)	> 64 µg/mL	O=c1cc(NC[C@H]2CCC[C@@H]2NCc2cc(Br)c(Br)s2)[nH]c2ccccc12 [Example 74]	
0.13 µg/mL (≈ 0.299 µM)	0.5 µg/mL (≈ 1.15 µM)	16 µg/mL (≈ 36.8 µM)	0.06 to 0.5 µg/mL (≈ 0.138 to 1.15 µM)					Cc1c(CNCCCNc2nc3cscc3[nH]2)sc(C(F)F)c1Br [Example 19, N-(4-Bromo-5-difluoromethyl-3-methylthiophen-2-ylmethyl)-N′-(1H-thieno[3,4-d]imidazol-2-yl)propane-1,3-diamine]	
0.06 µg/mL (≈ 0.141 µM)	0.25 µg/mL (≈ 0.589 µM)	64 µg/mL (≈ 151 µM)	0.06 to 0.5 µg/mL (≈ 0.141 to 1.18 µM)	≤ 200 nM				C=C(F)c1sc(CNCCCNc2nc3ncccc3[nH]2)c(C)c1Br [Example 17, N-(4-bromo-5-(1-fluorovinyl)-3-methylthiophen-2-ylmethyl)-N′-(1H-imidazo[4,5-b]pyridin-2-yl)-propane-1,3-diamine]	
